Source: patent US20260107927A1, “ZEBRAFISH ANIMAL MODEL FOR INFLAMMATORY DISEASES AND METHOD FOR SCREEING ANTI-INFLAMMATORY AGENTS USING SAME” (RAYDEL KOREA CO., LTD., priority 2022, published 2026)

What was measured:
zebrafish adults [1] = experiment: Intraperitoneal CML plus test substances in zebrafish adults: recovery of swimming ability and survival; type: in vivo, zebrafish (Danio rerio); conditions: for swimming ability compared with CML injected group / recovery of ability to swim compared with CML injected group: co-injected with CML; for swimming ability compared with CML injected group: 30 minutes after injection; for survival rate of zebrafish adults: combined treatment with CML, FIG. 11
Source text: The cytokine storm suppression ability of the test substances was compared by confirming the swimming ability of zebrafish of the groups injected with PBS, CML, CML and Remsima (Infliximab), and CML and Actemra (Tocilizumab) via intraperitoneal administration (FIG. 9).
The effects of the test substances in the CML and Remsima (Infliximab) injected group and the CML and Actemra (Tocilizumab) injected group were compared.

[2] = test system: liver tissue of zebrafish adults; experiment: Hematoxylin-eosin (H&E) staining of liver tissue: inflammatory cell infiltration; type: in vivo, zebrafish (Danio rerio)
Protocol: To compare the degree of acute cytokine storm induction by CML and alleviation, hematoxylin-eosin (H&E) staining was performed on zebrafish adults of the PBS-injected and CML-injected groups, and the degree of inflammatory cell infiltration in the liver tissue was investigated.
That is, the inhibitory effect of the IL-6 inhibitor Actemra (Tocilizumab) on inflammation caused by CML-induced glycation toxicity was greater than that of the TNF-α inhibitor Remsima (Infliximab).

[3] = test system: tumor necrosis factor-α (TNF-α); experiment: Plasma tumor necrosis factor-α after CML with or without test substances; type: in vivo, zebrafish (Danio rerio); conditions: FIG. 18
Protocol: (§1) Blood was collected from zebrafish in each group, plasma was isolated, and total cholesterol (TC) and triglyceride (TG) were analyzed. Blood was collected from zebrafish in each group, plasma was isolated, and serum amyloid A (SAA), a biomarker of hepatitis induction, interleukin-6 (IL-6), a factor that induces an acute cytokine storm in the liver, and tumor necrosis factor-α (TNF-α), an inflammatory cytokine involved in liver inflammation were analyzed.

serum amyloid A (SAA) = experiment: Plasma serum amyloid A after CML with or without test substances; type: in vivo, zebrafish (Danio rerio); conditions: FIG. 16
Protocol: as §1

zebrafish embryos [4] = experiment: Combined microinjection of CML with test substances into zebrafish embryos: survival rate and development; type: in vivo, zebrafish (Danio rerio); conditions: for survival rate of embryos: co-injected with 500 ng CML, 43 ng Remsima or 44 ng Actemra, after 24 hours, FIG. 3; for rate of development: co-injected with CML, 25 hours post-injection; for rate of development / developmental defects: FIG. 4; for developmental defects: microinjected mixture with CML
Protocol: (§2) The present inventors constructed a zebrafish embryonic animal model microinjected with CML to establish an acute cytokine storm induction system. After confirming under a microscope that the freshly spawned zebrafish embryos were 30 minutes post-fertilization (0.5 hour post fertilization (0.5 hpf)), the fertilized embryos that were dividing normally were selected. A capillary glass tube (TW100F-4, World Precision Instruments, Sarasota, FL, USA) was inserted into a micro-glass needle maker (PC-10, Narishege, Tokyo, Japan), and the coil was adjusted to be in the center of the capillary glass tube, and then a needle was made at a temperature of 71.3° C. The tip of the needle was sharpened by cutting it diagonally using a sharp forcep, a hole was made, and 5 μL of injection cocktail solution was added to the microglass needle.
(§3) Eggs were densely packed and arranged at appropriate intervals on a 1% agarose gel with grooves of appropriate spacing to facilitate rapid microinjection. A microglass needle was attached to a microinjector (PV-830, World Precision Instruments, Sarasota, FL, USA), 5 μL of mineral oil was spread on a graduated hematocytometer, the needle was placed on top of it, and the contents were injected. The size of the bubble formed was measured and calibrated to the desired volume, after which it was injected into zebrafish embryos at the 2-cell and 4-cell stages.
(§4) At this time, in order to minimize errors in the microinjection process, microinjection was performed as much as possible into the yolk area. After microinjection, the embryos were separated from the agarose gel and placed in a Petri dish, which was then filled with 20 mL of egg water (0.02 mg/L methylene blue) and stored at 28° C. All injection processes were performed under a stereomicroscope (SMZ-168, Motic, Hong Kong) at 20× magnification.

interleukin-6 (IL-6) = experiment: Plasma interleukin-6 after CML with or without test substances; type: in vivo, zebrafish (Danio rerio); conditions: FIG. 17
Protocol: as §1

zebrafish adults [5] = experiment: Plasma total cholesterol (TC) and triglyceride (TG) after CML with or without test substances; type: in vivo, zebrafish (Danio rerio); conditions: for plasma triglyceride (TG) concentration: FIG. 15
Protocol: Zebrafish adults were treated with CML at a concentration of 3 mM, and Actemra (Tocilizumab) and Remsima (Infliximab) were simultaneously treated to confirm the effects of the test substances on reducing total cholesterol (TC) and triglyceride (TG).
Blood was collected from zebrafish in each group, plasma was isolated, and total cholesterol (TC) and triglyceride (TG) were analyzed.

zebrafish embryos [6] = experiment: CML microinjection into zebrafish embryos: survival rate and embryo development; type: in vivo, zebrafish (Danio rerio)
Protocol: as §2, with “A capillary glass tube (TW100F-4, World Precision Instruments, Sarasota, FL, USA) was inserted into a micro-glass needle maker (PC-10, Narishege, Tokyo, Japan), and the coil was adjusted to be in the center of the capillary glass tube, and then a needle was made at a temperature of 71.3° C.” left out
as §3
as §4, with “C.” for “C. All injection processes were performed under a stereomicroscope (SMZ-168, Motic, Hong Kong) at 20× magnification.”
To compare the survival rates of zebrafish embryos, the inventors prepared a non-injected group (No injection), a PBS-injected control group (PBS control), and a CML-injected group.

zebrafish adults [7] = experiment: Intraperitoneal CML injection into zebrafish adults: swimming ability, acute paralysis, survival
Protocol: Movements of 10 zebrafish adults (16±3 weeks old) injected intraperitoneally with CML (250 μg, 10 μL) solution (final conc. of CML: 3 mM) and 10 zebrafish adults injected with PBS were observed 30 minutes and 1 hour after injection.

[8] = intraperitoneal, 1 hour after injection, FIG. 9
[9] = treated simultaneously with CML, FIGS. 12 and 13
[10] = treated simultaneously with CML
[11] = CML-injected embryos, about 25 hours post-fertilization

Compound	swimming ability compared with CML injected group (zebrafish adults [1]; intraperitoneal, FIG. 9)	recovery of ability to swim compared with CML injected group (zebrafish adults [1]; [8])	survival rate of zebrafish adults (zebrafish adults [1])	inflammatory cell infiltration in liver tissue [2, 9]	TNF-α [3, 10] [ng/mL]	serum amyloid A (SAA) (serum amyloid A (SAA); [10]) [ng/mL]	survival rate of embryos (zebrafish embryos [4]) [%]	rate of development (zebrafish embryos [4])	developmental defects (zebrafish embryos [4])	IL-6 (interleukin-6 (IL-6); [10]) [pg/mL]	other results
Remsima: biopharmaceutical, a TNF-α inhibitor, used as treatment agent for rheumatoid arthritis	More zebrafish	more zebrafish had regained the ability to swim	63%	approximately 23%	41.6 ± 5.8	41.2 ± 5.3	38.4	almost the same rate of development as embryos injected with PBS	no developmental defects were observed	62.8 ± 3.1	
N[C@@H](CCCCNCC(=O)O)C(=O)O [CML, N-ε-carboxymethyllysine]											number of zebrafish showing recovery of swimming ability (zebrafish adults [1]; CML group, 3 mM intraperitoneal, 1 hour after injection, FIG. 9): 2 to 3; inflammatory cell infiltration in liver tissue ([2]; CML alone, FIGS. 12 and 13): approximately 23%; inflammatory cell infiltration in liver tissue ([2]; CML only injection group, FIG. 8): 27%; TNF-α ([3]; CML alone): 43.5 ± 0.4 ng/mL; plasma total cholesterol (TC) concentration (zebrafish adults [5]; CML alone, 3 mM, FIG. 14): highest; plasma triglyceride (TG) concentration (zebrafish adults [5]; CML alone, 3 mM): highest; serum amyloid A (SAA) (serum amyloid A (SAA); CML alone): 59.7 ± 1.6 ng/mL; IL-6 (interleukin-6 (IL-6); CML alone): 76.4 ± 6.1 pg/mL; survival rate of zebrafish embryos (zebrafish embryos [6]; 500 ng CML microinjected (20 nL, 25 mg/mL in PBS), 24 hours, FIG. 1): 23.5%; developmental stage of embryos (zebrafish embryos [6]; 25 hours after CML injection, FIG. 2): 21-somite stage; developmental morphology (zebrafish embryos [6]; CML-injected embryos): developmental malformations were present in the head and tail; developmental state, equivalent time after fertilization (zebrafish embryos [6]; [11]): about 19.5 hours after fertilization; number of somites (zebrafish embryos [6]; [11]): about 21; zebrafish that recovered the ability to swim (zebrafish adults [7]; CML 250 μg intraperitoneal (final 3 mM), 1 hour after injection, FIGS. 5 and 6): 25%; movement / swimming ability (zebrafish adults [7]; CML 250 μg, 10 μL intraperitoneal (final 3 mM), first 30 minutes after injection): immobilized and lying on the bottom; survival rate of zebrafish adults (zebrafish adults [7]; CML alone, intraperitoneal, after 60 minutes, FIG. 8): less than 49%
Actemra: biopharmaceutical, an IL-6 inhibitor, used as treatment agent for rheumatoid arthritis	More zebrafish	more zebrafish had regained the ability to swim	approximately 97%	15-17%	6.8 ± 2.6	38.8 ± 2.0	53.1	almost the same rate of development as embryos injected with PBS	no developmental defects were observed	51.8 ± 1.8	recovery of swimming ability and survival rate compared with 43 μg Remsima (zebrafish adults [1]; 44 μg Actemra with CML, intraperitoneal, FIGS. 10 and 11): recovery of swimming ability was better and survival rate was increased; plasma triglyceride (TG) concentration (zebrafish adults [5]; treated simultaneously with 3 mM CML): lowest
